For seven compounds, TGI and GI50 results are on record in PubChem BioAssay (NCI).

Values joined by “and” are separate entries in the source; they are usually repeats but may differ in a detail not shown here. Identical values can stand only once.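 Exposure lasted 48 hours, with cells grown in 96-well plates and compounds tested at five concentrations. Here, GI50 denotes the concentration required for 50% inhibition of growth. TGI denotes the concentration required for complete inhibition of growth.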 Where only a bound is given, the exact number is not on record here.

Among the test systems are 786-0 renal; MCF7 breast; NCI/ADR-RES ovarian; SK-MEL-5 melanoma; MDA-MB-435; RXF 393 renal; NCI-H522 lung; SW-620 colon; HCT-116 colon; HT29 colon.
Experiment in all cases: NCI anticancer screen, dose series, 48 h

Take `CC1(C)C2CCC3=C(CCC4(C)C5C[C@](C)(C(=O)O)CC[C@]5(C)CC[C@]34C)[C@@]2(C)CC[C@@H]1O` (stereo partly drawn): the TGI is 29.3 µM in the assay on 786-0 renal; 40.4 µM with MCF7 breast; 36 µM in the assay with NCI/ADR-RES ovarian; 68.7 µM with SK-MEL-5 melanoma; 63 µM in the assay on MDA-MB-435; 41.3 µM in the assay on RXF 393 renal. The TGI with NCI-H522 lung came to 40.8 µM; in the assay on SW-620 colon it was 32.3 µM; in the assay on HCT-116 colon, 30.2 µM; in the assay on HT29 colon, 33 µM.
For the compound `COc1ccc(CN(C)c2ccc(CO)c(Cl)c2)cc1`, the GI50 with 786-0 renal was 13.7 µM; in the assay with MCF7 breast, 0.892 µM; with NCI/ADR-RES ovarian, 15.9 µM; in the assay with SK-MEL-5 melanoma, 8.24 µM; in the assay on MDA-MB-435, 24.2 µM; in the assay on RXF 393 renal, 10.9 µM. The GI50 with NCI-H522 lung is 22.4 µM; with SW-620 colon, 4.53 µM; in the assay on HCT-116 colon, 0.368 µM; in the assay with HT29 colon it was 5.5 µM. The TGI is over 66.4 µM in the assay with 786-0 renal; over 64.9 µM in the assay on MCF7 breast; 55.3 µM in the assay on NCI/ADR-RES ovarian; 21.9 µM in the assay on SK-MEL-5 melanoma; 95.4 µM in the assay with MDA-MB-435; over 79.8 µM in the assay with RXF 393 renal. For the same compound, the TGI in the assay on NCI-H522 lung was over 80.7 µM; with SW-620 colon, over 100 µM; with HCT-116 colon it was 14.2 µM; in the assay on HT29 colon it was over 88.3 µM.
Take `O=C1CC(NC(=O)C(F)(F)F)c2c1csc2Br` (stereo not drawn): the TGI was 83.1 µM in the assay on 786-0 renal; 9.85 µM in the assay with MCF7 breast; over 100 µM with NCI/ADR-RES ovarian; over 100 µM in the assay with SK-MEL-5 melanoma; over 100 µM in the assay on MDA-MB-435; 47.9 µM with RXF 393 renal. Further, the TGI in the assay with NCI-H522 lung, in the assay on SW-620 colon, with HCT-116 colon and with HT29 colon was over 100 µM in each case.
In the case of `CO[C@@H]1/C=C\C=C(/C)C(=O)NC2=CC(=O)C(NCCN(C)C)=C(C[C@@H](C)C[C@@H](OC)[C@@H](O)[C@H](C)/C=C(\C)[C@H]1OC(N)=O)C2=O`, the GI50 with 786-0 renal is 0.0589 µM; in the assay with NCI/ADR-RES ovarian it was 5.55 µM and 17.7 µM; in the assay with SK-MEL-5 melanoma it was < 0.01 µM and 0.0238 µM; in the assay on MDA-MB-435, under 0.0124 µM; in the assay with NCI-H522 lung it was < 0.01 µM and 0.0228 µM; in the assay with SW-620 colon, < 0.01 µM and 0.0487 µM. The GI50 in the assay on HCT-116 colon is 0.0192 µM; with HT29 colon, under 0.01 µM. Besides, the TGI is 15 µM and 26.9 µM with 786-0 renal; 1.88 µM and 3.8 µM in the assay with MCF7 breast; 29.6 µM and 62.7 µM in the assay on NCI/ADR-RES ovarian; 3.12 µM and 1.12 µM with SK-MEL-5 melanoma; 3.1 µM and 1.32 µM with MDA-MB-435; 11.8 µM and 10.8 µM in the assay on RXF 393 renal. In addition, the TGI is 0.709 µM and 3.57 µM in the assay with NCI-H522 lung; 20.6 µM with SW-620 colon; 1.52 µM and 2.3 µM in the assay on HCT-116 colon; 4.54 µM and 3.96 µM in the assay with HT29 colon.
In the case of `CCN(CC)CCCC(C)Nc1c2ccc(Cl)cc2nc2ccc(OC)cc12` (stereo not drawn), the GI50 in the assay on 786-0 renal is 1.88 µM; in the assay with MCF7 breast it was 2.33 µM; in the assay with NCI/ADR-RES ovarian, 2.26 µM; in the assay with SW-620 colon it was 1.18 µM; in the assay with HCT-116 colon, 1.38 µM. Further, the TGI in the assay on 786-0 renal is 4.15 µM and 4.77 µM; with MCF7 breast it was 8.04 µM and 10.7 µM; in the assay on NCI/ADR-RES ovarian, 9.69 µM and 7.81 µM; with SK-MEL-5 melanoma it was 3.1 µM; with MDA-MB-435, 3.08 µM and 2.79 µM; in the assay with RXF 393 renal it was 2.53 µM. For the same compound, the TGI in the assay on NCI-H522 lung was 2.97 µM; in the assay with SW-620 colon, 8.55 µM and 4.35 µM; in the assay on HCT-116 colon, 5.79 µM and 4.31 µM; with HT29 colon, 3.97 µM and 2.57 µM.
Turning to `CC1=C2[C@@H](CC1)[C@]1(C)O[C@@](C3CCCCC3)(C[C@H]1OC(=O)CO)[C@H]2OC(=O)/C=C/c1ccccc1`, the GI50 in the assay with 786-0 renal is 1.48 µM; with MCF7 breast, 3.09 µM; with NCI/ADR-RES ovarian, 0.186 µM; with SK-MEL-5 melanoma, 12 µM; with MDA-MB-435, 8.65 µM; in the assay with RXF 393 renal it was 0.029 µM. Also, the GI50 with NCI-H522 lung was 7.71 µM; in the assay with SW-620 colon it was 9.26 µM; in the assay with HCT-116 colon it was 7.12 µM; with HT29 colon, 6.1 µM. For the same compound, the TGI came out at 17.6 µM with 786-0 renal; 13.4 µM in the assay on MCF7 breast; 11.6 µM in the assay with NCI/ADR-RES ovarian; 24.9 µM with SK-MEL-5 melanoma; 23.6 µM in the assay with MDA-MB-435; 0.483 µM in the assay on RXF 393 renal. Besides, the TGI in the assay with NCI-H522 lung is 22.5 µM; in the assay on SW-620 colon, 25.1 µM; in the assay on HCT-116 colon it was 21.1 µM; in the assay on HT29 colon it was 16.9 µM.
In the case of `COc1ccc(N2C(=O)CC(Cl)C2=O)cc1` (stereo not drawn), the TGI with 786-0 renal was 32 µM; in the assay on MCF7 breast, over 100 µM; in the assay with NCI/ADR-RES ovarian, over 100 µM; with SK-MEL-5 melanoma, over 100 µM; with MDA-MB-435, over 100 µM; in the assay on RXF 393 renal, 40.7 µM. For the same compound, the TGI with NCI-H522 lung was 36.5 µM; with SW-620 colon, 35.2 µM; in the assay with HCT-116 colon it was 32.2 µM; with HT29 colon it was 31.7 µM.
